Columns and labels:
human Factor XI mRNA [1] = assay: Dose-dependent inhibition in HepG2 cells, lipofectin (Example 4); assay type: cell-based; conditions: 16 hours
In short: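 Read-out was percent inhibition of Factor XI mRNA relative to untreated controls, by qRT-PCR (RTS 2966) adjusted for RIBOGREEN-measured total RNA. Cells received antisense oligonucleotide at 9.375 to 75 nM (four levels) via lipofectin. Treatment lasted approximately 16 hours, with plating at 10,000 cells per well.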

human Factor XI mRNA [2] = assay: Dose-dependent inhibition in HepG2 cells, electroporation (Example 5); assay type: cell-based; conditions: approx. 16 h, relative to untreated control cells
Procedure: The gapmers were also transfected via electroporation and their dose dependent inhibition of human Factor XI mRNA was measured. Cells were plated at a density of 20,000 cells per well and transfected via electroporation with 625 nM, 1250 nM, 2500 nM, 5,000 nM, 10,000 nM, and 20,000 nM concentrations of antisense oligonucleotide, as specified in Table 12. After a treatment period of approximately 16 hours, RNA was isolated from the cells and human Factor XI mRNA levels were measured by quantitative real-time PCR. Human Factor XI primer probe set RTS 2966 was used to measure mRNA levels. Factor XI mRNA levels were adjusted according to total RNA content, as measured by RIBOGREEN®. Results are presented as percent inhibition of human Factor XI, relative to untreated control cells.

human Factor XI mRNA [3] = assay: Dose-dependent inhibition in cyno primary hepatocytes, electroporation (Example 6); assay type: cell-based, cynomolgus monkey; conditions: approx. 16 h
Procedure: Cells were plated at a density of 35,000 cells per well and transfected via electroporation with 0.74 nM, 2.2 nM, 6.7 nM, 20 nM, 60 nM, and 180 nM concentrations of antisense oligonucleotide, as specified in Table 13. After a treatment period of approximately 16 hours, RNA was isolated from the cells and human Factor XI mRNA levels were measured by quantitative real-time PCR. Human Factor XI primer probe set RTS 2966 was used to measure mRNA levels. Factor XI mRNA levels were adjusted according to total RNA content, as measured by RIBOGREEN®. Results are presented as percent inhibition of human Factor XI, relative to untreated control cells.

human Factor XI mRNA [4] = assay: Dose-dependent inhibition in HepB3 cells, lipofectin (Example 7); assay type: cell-based; conditions: approx. 16 h
Procedure: Cells were plated at a density of 4,000 cells per well and transfected using lipofectin reagent with 2.3 nM, 4.7 nM, 9.4 nM, 18.75 nM, 37.5 nM, and 75 nM concentrations of antisense oligonucleotide, as specified in Table 14. After a treatment period of approximately 16 hours, RNA was isolated from the cells and human Factor XI mRNA levels were measured by quantitative real-time PCR. Human Factor XI primer probe set RTS 2966 was used to measure mRNA levels. Factor XI mRNA levels were adjusted according to total RNA content, as measured by RIBOGREEN®. Results are presented as percent inhibition of Factor XI, relative to untreated control cells.

human Factor XI mRNA [5] = assay: Antisense inhibition in HepG2 cells by microwalk gapmers, 8,000 nM, electroporation (Example 14); assay type: cell-based; conditions: HepG2 cells, 8,000 nM
In short: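 Percent reduction of Factor XI transcript, relative to untreated controls, by real-time PCR with RIBOGREEN normalisation. Readout taken about 24 h after electroporating HepG2 cells with 8,000 nM oligonucleotide. Gapmers are 5-10-5, 5-8-5 or 6-8-6 MOE wings, phosphorothioate backbone.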

| Substance | percent inhibition of Factor XI mRNA, relative to untreated control cells (human Factor XI mRNA [1]; 9.375 nM) [%] | percent inhibition of Factor XI mRNA, relative to untreated control cells (human Factor XI mRNA [1]; 18.75 nM) [%] | percent inhibition of Factor XI mRNA, relative to untreated control cells (human Factor XI mRNA [1]; 37.5 nM) [%] | percent inhibition of Factor XI mRNA, relative to untreated control cells (human Factor XI mRNA [1]; 75 nM) [%] | percent inhibition of human Factor XI mRNA (human Factor XI mRNA [2]; 625 nM) [%] | percent inhibition of human Factor XI mRNA (human Factor XI mRNA [2]; 1250 nM) [%] | percent inhibition of human Factor XI mRNA (human Factor XI mRNA [2]; 2500 nM) [%] | percent inhibition of human Factor XI mRNA (human Factor XI mRNA [2]; 5000 nM) [%] | percent inhibition of human Factor XI mRNA (human Factor XI mRNA [2]; 10000 nM) [%] | percent inhibition of human Factor XI mRNA (human Factor XI mRNA [2]; 20000 nM) [%] | percent inhibition of human Factor XI mRNA (human Factor XI mRNA [3]; 0.74 nM) [%] | percent inhibition of human Factor XI mRNA (human Factor XI mRNA [3]; 2.2 nM) [%] | percent inhibition of human Factor XI mRNA (human Factor XI mRNA [3]; 6.7 nM) [%] | percent inhibition of human Factor XI mRNA (human Factor XI mRNA [3]; 20 nM) [%] | percent inhibition of human Factor XI mRNA (human Factor XI mRNA [3]; 60 nM) [%] | percent inhibition of human Factor XI mRNA (human Factor XI mRNA [3]; 180 nM) [%] | percent inhibition of human Factor XI mRNA (human Factor XI mRNA [4]; 2.3 nM) [%] | percent inhibition of human Factor XI mRNA (human Factor XI mRNA [4]; 4.7 nM) [%] | percent inhibition of human Factor XI mRNA (human Factor XI mRNA [4]; 9.4 nM) [%] | percent inhibition of human Factor XI mRNA (human Factor XI mRNA [4]; 18.75 nM) [%] | also measured |
| --- | --- | --- | --- | --- | --- | --- | --- | --- | --- | --- | --- | --- | --- | --- | --- | --- | --- | --- | --- | --- | --- |
| 416825 (antisense GCCCTTCATGTCTAGGTCCA; 5-10-5 gapmer, wing sugar chemistry not given here, further chemistry not given here) [compound 416825] | 23 | 52 | 73 | 92 | 69 | 84 | 91 | 94 | 96 | 97 | 5 | 22 | 51 | 61 | 77 | 84 | 0 | 15 | 34 | 36 | percent inhibition of human Factor XI mRNA (human Factor XI mRNA [4]; 37.5 nM): 53%; percent inhibition of human Factor XI mRNA (human Factor XI mRNA [4]; 75 nM): 59%; Percent inhibition of human Factor XI mRNA levels (human Factor XI mRNA [5]): 90% |
| 416850 (antisense TGCACAGTTTCTGGCAGGCC; 5-10-5 gapmer, wing sugar chemistry not given here, further chemistry not given here) [compound 416850] | 4 | 30 | 67 | 84 | 69 | 80 | 87 | 90 | 93 | 96 | 2 | 20 | 24 | 65 | 69 | 67 | 22 | 32 | 43 | 56 | percent inhibition of human Factor XI mRNA (human Factor XI mRNA [4]; 37.5 nM): 75%; percent inhibition of human Factor XI mRNA (human Factor XI mRNA [4]; 75 nM): 60%; Percent inhibition of human Factor XI mRNA levels (human Factor XI mRNA [5]): 91% |
| 416858 (antisense ACGGCATTGGTGCACAGTTT; 5-10-5 gapmer, wing sugar chemistry not given here, further chemistry not given here) [compound 416858] | 0 | 28 | 54 | 82 | 65 | 77 | 87 | 89 | 93 | 93 | 2 | 13 | 22 | 44 | 63 | 68 | 17 | 34 | 43 | 57 | percent inhibition of human Factor XI mRNA (human Factor XI mRNA [4]; 37.5 nM): 74%; percent inhibition of human Factor XI mRNA (human Factor XI mRNA [4]; 75 nM): 62%; Percent inhibition of human Factor XI mRNA levels (human Factor XI mRNA [5]): 90% |
| 416864 (antisense GGCAGCGGACGGCATTGGTG; 5-10-5 gapmer, wing sugar chemistry not given here, further chemistry not given here) [compound 416864] | 18 | 43 | 62 | 78 | 45 | 74 | 84 | 87 | 92 | 94 | 0 | 1 | 15 | 23 | 47 | 64 | 24 | 37 | 42 | 66 | percent inhibition of human Factor XI mRNA (human Factor XI mRNA [4]; 37.5 nM): 76%; percent inhibition of human Factor XI mRNA (human Factor XI mRNA [4]; 75 nM): 63%; Percent inhibition of human Factor XI mRNA levels (human Factor XI mRNA [5]): 88% |

— patent publication US20120083522A1, “MODULATION OF INFLAMMATORY RESPONSES BY FACTOR XI” (Isis Pharmaceuitcals, inc., priority 2009, published 2012)
